The values below come from patent publication US20080131366A1, “Folate Receptor Gene Modulation For Cancer Diagnosis And Therapy” (priority 2003, published 2008).

One data set relates to GRE2e1b promoter. How it is done: (§1) HeLa cells, which express endogenous GR, were transfected with FR-α promoter-luciferase or GRE2e1b promoter luciferase. […] FIG. 17B: Time course of Dex action. Promoter activity was measured in terms of luciferase activity at the different time points.
The subject of data set [1] is FR-α promoter. As to the kind of experiment: FR-α promoter-luciferase in HeLa cells (endogenous GR). The data set is classed as cell-based. How it is done: as §1
In data set [2] the test system is FR-α. As to the kind of experiment: Endogenous FR-α in AR-transfected HeLa cells, flow cytometry with fluorescein-folic acid conjugate. The data set is classed as cell-based. (In general: In flow cytometry, cells or beads pass a laser one at a time.)
Description: Where indicated, cells were transfected with AR expression plasmid and the testosterone (10 nM) and TSA (50 mg/ml) treatments were for 3 days post-transfection.
Data set [3] deals with FR-α promoter. As to the kind of experiment: FR-α promoter-luciferase in T47D cells (endogenous PR and GR). In kind it is cell-based. Particulars: TSA 25 ng/ml with R5020.
The test system of data set [4] is FR-α promoter. As to the kind of experiment: FR-α promoter-luciferase reporter in HeLa cells co-transfected with ER. The data set is classed as cell-based. How it is done:
(§2) (FIG. 1A) HeLa and IGROV-1 cells (10^6) were co-transfected with the FR-α promoter-luciferase construct (400 ng) and either an ER expression plasmid (25 ng) or with the plasmid vector alone (25 ng) in the presence of 1 nM E2. Antiestrogens were introduced at the time of transfection. […] (FIG. 1B) The FR-α promoter-luciferase construct (400 ng) was transfected into BG-1 cells (10^6) in the absence or in the presence of E2 (1 nM) and antiestrogens were introduced at the time of transfection. (FIG. 1C) HeLa cells (10^6) were transfected with the thymidine kinase (TK)-promoter-luciferase (200 ng) or Rous Sarcoma Virus (RSV)-promoter-luciferase (200 ng) constructs and were co-transfected with either ER plasmid (25 ng) or with the plasmid vector (25 ng). Antiestrogens were introduced at the time of transfection.
FIGS. 2A and 2B are graphs showing an estrogen and antiestrogen dose response of a control ERE-driven promoter and the FR-α promoter in HeLa cells. The Y-axis in FIG. 2A indicates promoter activation, whereas the Y-axis in FIG. 2B indicates promoter repression. The cells (10^6) were transfected with either ERE2E1b-luciferase (100 ng) (FIG. 2A) or FR-α promoter-luciferase (100 ng) (FIG. 2B) and co-transfected with the ER expression plasmid (50 ng) where indicated. Cells that were not co-transfected with the ER-plasmid were co-transfected instead with the plasmid vector alone (50 ng).
FIGS. 3A and 3B are graphs showing a time course of response of the control ERE2E1b-luciferase (FIG. 3A) and FR-α promoter luciferase (FIG. 3B) to antiestrogens in HeLa cells. The cells (10^6) were transfected with the indicated promoter-luciferase construct (100 ng) and co-transfected with ER expression plasmid (50 ng) in the presence of E2 (1 nM).
In one set of experiments, the antiestrogens were removed after a 6 h treatment.
Cell Culture and Transfection: HeLa I-1 cells were kindly provided by Dr. S. T. Rosen. BG-1 cells were provided by Dr. Randolf Ruch. HeLa (American Type Tissue Collection) and HeLa I-1 cells were routinely cultured in phenol red-free MEM supplemented with fetal bovine serum (FBS) (10%), penicillin (100 units/mL), streptomycin ([…]), and L-glutamine (2 mM). BG-1 and IGROV1 (American Type Tissue Collection) cells were routinely cultured in DMEM and supplemented as above. Treated or transfected cells were grown in phenol-red free media supplemented with charcoal-stripped FBS (5% v/v), penicillin (100 units/mL), streptomycin ([…]), L-glutamine (2 mM), insulin (2 μg/mL), and transferrin (40 μg/mL) unless otherwise noted. In addition, treated HeLa I-1 cells were grown in culture with 50 μg/mL G418. […] Uniformity of transfection was routinely monitored through cotransfections with the β-galactosidase expression plasmid, pSV-β-gal (Promega). β-galactosidase activity was measured colorimetrically using the assay system available from Promega.
Luciferase Assay: Forty-eight hours after transfection, the cells were washed once with PBS (10 mM sodium phosphate, pH 7.5, 150 mM NaCl) and harvested in 400 μL of reporter lysis buffer provided with the luciferase assay system (Promega). The samples were centrifuged at 12,000 g for 2 min at room temperature. The supernatant was assayed for luciferase activity in a luminometer (Lumat LB9501, Berthold) using the luciferase substrate from Promega.
For orientation: Reporter assays use an easily measured gene product as a stand-in for the process of interest.

Data set [5] deals with FR-α. Kind of data set: FR-α in HeLa cell tumor xenografts after tamoxifen, western blot. In kind it is in vivo, mouse. Conditions: ER+ HeLa cell tumors, tamoxifen 1 mg/kg sc daily. (In general: Immunoblotting shows a protein as a band on a membrane.)
The test system of data set [6] is FR-α promoter. As to the kind of experiment: FR-α promoter-luciferase reporter in IGROV-1 cells co-transfected with ER. The data set is classed as cell-based. Conditions: IGROV-1, ER co-transfected, 1 nM E2, pharmacologic concentrations of antiestrogen. How it is done:
as §2
Cell Culture and Transfection: HeLa I-1 cells were kindly provided by Dr. S. T. Rosen. BG-1 cells were provided by Dr. Randolf Ruch. […] Uniformity of transfection was routinely monitored through cotransfections with the β-galactosidase expression plasmid, pSV-β-gal (Promega). β-galactosidase activity was measured colorimetrically using the assay system available from Promega. […]

The subject of data set [7] is FR-α. Kind of data set: Induction of endogenous FR-α in ER+/FRα-negative cells. In kind it is cell-based. Particulars: ER+/FRα-negative cells including BG-1; results not shown. From the text: It appears that ER will only modulate the endogenous FR-α gene in cells in which the gene is transcriptionally active.
A further data set concerns FR (α or β). Kind of data set: FR induction by testosterone in FR-negative cell types. Particulars: results not shown. In kind it is cell-based.
For data set [8], the system named is FR-α promoter. As to the kind of experiment: FR-α promoter-luciferase in HeLa cells transfected with AR. In kind it is cell-based. Conditions: 10 nM. How it is done:
(§3) FIGS. 10A, 10B, 10C and 10D are graphs showing the enhancement of FR-α promoter activity by testosterone/AR. In HeLa cells, AR was introduced by transiently transfecting an AR expression plasmid. FR-α promoter-luciferase, PSA-promoter-luciferase, or promoterless PGL3 basic-luciferase was co-transfected. Testosterone was introduced at the time of transfection (10 nM in FIGS. 10A, 10C, and 10D) and cells harvested for luciferase assays 48 h post-transfection. […] FIGS. 10C and 10D show AR dose responses for the FR-α and PSA promoters, respectively.
(§4) FIG. 11 is a graph showing the time course of testosterone/AR action on FR-α and PSA promoters. HeLa cells were cotransfected with AR expression plasmid and either FR-α promoter-luciferase or PSA promoter-luciferase. Testosterone (10 nM) was introduced 48 h post-transfection and the cells harvested to assay luciferase activity at the indicated times.

In another data set the test system is PSA promoter. As to the kind of experiment: PSA promoter-luciferase in HeLa cells transfected with AR. The data set is classed as cell-based. Particulars: 10 nM, introduced 48 h post-transfection. As for the experimental part:
as §3, §4

Data set [9] concerns the target T1, Estrogen receptor alpha (ER) (UniProt P03372 P03372:1-595). Kind of data set: EMSA; HeLa NE present; tamoxifen but not ICI 182,780 abolished band. Particulars: assayed with HeLa nuclear extract; label: 32P.
In data set [10] the target is T1, Estrogen receptor alpha (ER). As to the kind of experiment: EMSA; no ER shift with consensus Sp1; HeLa NE present. Conditions: assayed with HeLa nuclear extract; label: 32P.
For data set [11] the target is unchanged. As to the kind of experiment: EMSA; HeLa NE present; E2 increased band, tamoxifen and ICI 182,780 abolished it; 100-fold unlabelled ERE blocked; room temperature, 50 mM KCl, 0.5 mM MgCl2. Conditions: assayed with HeLa nuclear extract; label: 32P.

A value given as a limit tells only on which side of the number the result lay.

T1 sequence (P03372 whole entry, one chain of several): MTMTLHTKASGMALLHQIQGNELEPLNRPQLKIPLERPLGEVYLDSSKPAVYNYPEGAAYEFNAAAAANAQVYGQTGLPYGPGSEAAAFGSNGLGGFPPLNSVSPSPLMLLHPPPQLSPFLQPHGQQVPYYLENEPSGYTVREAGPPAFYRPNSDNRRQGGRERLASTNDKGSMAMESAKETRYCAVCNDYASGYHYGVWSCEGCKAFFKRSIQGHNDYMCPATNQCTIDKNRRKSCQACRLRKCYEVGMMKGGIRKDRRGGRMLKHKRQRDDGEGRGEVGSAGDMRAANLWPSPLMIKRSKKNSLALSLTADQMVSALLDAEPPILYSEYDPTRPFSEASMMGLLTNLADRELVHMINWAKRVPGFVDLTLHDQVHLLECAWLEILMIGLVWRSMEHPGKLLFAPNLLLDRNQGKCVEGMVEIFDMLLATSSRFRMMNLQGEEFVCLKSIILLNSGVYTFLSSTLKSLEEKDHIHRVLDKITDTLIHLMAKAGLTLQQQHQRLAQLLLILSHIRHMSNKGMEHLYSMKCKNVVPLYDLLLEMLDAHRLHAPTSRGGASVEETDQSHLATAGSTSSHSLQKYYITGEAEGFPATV

As to `C[C@@H]1C[C@H]2[C@@H]3CCC4=CC(=O)C=C[C@]4(C)[C@@]3(F)[C@@H](O)C[C@]2(C)[C@@]1(O)C(=O)CO` [Dex, dexamethasone], in the data set on GRE2e1b promoter, the “time at which activation was shown” value was at most 3 h. Further, in the data set with FR-α promoter [1], the “concentration of optimal enhancement” value was determined as 50 nM and the “time at which enhancement began” value is listed as above 48 h.
`CC(/C=C/C(=O)NO)=C\[C@@H](C)C(=O)c1ccc(N(C)C)cc1` [TSA, trichostatin A]: the “further enhancement of the testosterone/AR-dependent increase” value with FR-α [2] (50 ng/ml TSA with testosterone 10 nM) is listed as around 4 fold. For the same molecule, the “activation of the FR-α promoter by R5020” value with FR-α promoter [3] is listed as “greatly potentiated”.
Take `CC/C(=C(\c1ccccc1)c1ccc(OCCN(C)C)cc1)c1ccccc1` [tamoxifen, Tamoxifen]: the “derepression of FR-α promoter after 6 h treatment and withdrawal” value in the data set on FR-α promoter [4] (6 h treatment, then compound withdrawn) is given as “partially lost”. Further, in the data set on FR-α promoter [4] (HeLa, ER co-transfected), the “effect on FR-α promoter (ligand dose response)” value is on record as “the repression was counteracted”. Also, the “FR-α promoter activity after repression by ER” value in the data set on FR-α promoter [4] (HeLa, ER co-transfected, 1 nM E2, pharmacologic concentrations of antiestrogen) is given as “either partially or completely restored to the uninhibited values”; in the data set with FR-α promoter [6], “either partially or completely restored to the uninhibited values”. For the same molecule, the “reporter activity at the end of 48 h post-transfection” value in the data set on FR-α promoter [4] (antiestrogen introduced 24 h after co-transfection) is listed as “a doubling of the reporter activity”. In the data set with FR-α promoter [4] (antiestrogen introduced 24 h after transfection), the “onset of activation of FR-α promoter” value was “began within hours and progressively increased”. Moreover, the “FR-α promoter activity in the absence of ER” value in the data set on FR-α promoter [4] (no ER co-transfected, HeLa and IGROV-1, results not shown) is “did not alter FR-α promoter activity”. In the data set on FR-α [5], the “FR-α expression in tumors” value is reported as “significant increase in FR-α expression”. Further, in the data set on FR-α [7], the “induction of endogenous FR-α expression” value is given as “In no case did the inventor observe induction”.
Take `C[C@]12CC[C@H]3[C@@H](CCC4=CC(=O)CC[C@@]43C)[C@@H]1CC[C@@H]2O` [testosterone]: in the data set with FR-α [2] (10 nM for 3 days, AR transfected), the “increase in fluorescence of the major peak (endogenous FR)” value was “approximately 7 fold”. The “induction of FR (α or β) expression” value in the data set on FR (α or β) is listed as “did not induce FR (α or β) expression”. The FR-α promoter activity entry with FR-α promoter [8] was “increased the promoter activity”. Also, the “time at which activation was observed” value in the data set with FR-α promoter [8] (introduced 48 h post-transfection) and in the data set on PSA promoter was 2 h each time.

B1: consensus ERE probe (dsDNA)
DNA 1: GTCAGGTCACAGTGACCTGA
DNA 2: TCAGGTCACTGTGACCTGAC
B1: in data set [9], the binding result is listed as “binds”.

B2: consensus Sp1 probe (dsDNA)
DNA 1: ATTCGATCGGGGCGGGGCGAG
DNA 2: CTCGCCCCGCCCCGATCGAAT
For B2, the binding result in data set [10] is “no binding”.

B3: FR-alpha P4 promoter probe -89 to -50 (dsDNA)
DNA 1: GGAGATGGGGGCAGGGCTCTATCTGCCCCAGGCTTCCGTCC
DNA 2: GGACGGAAGCCTGGGGCAGATAGAGCCCTGCCCCCATCTCC
For B3, the binding result in [11] is “binds”.
